Data taken from US20130267422A1, “COMPOSITION FOR CONTROLLING PLANT DISEASES COMPRISING 3-PENTANOL AS EFFECTIVE COMPONENT” (Korea Research Institute Of Bioscience And Biotechnology, priority 2010, published 2013).

Key:
Type in all cases: in vivo
[1] = system: bacterial leaf spot disease; test: ISR against naturally occurring bacterial leaf spot disease under field conditions; conditions: pepper, three months after final transplantation
Excerpt: (§1) FIGS. 5A through 5C illustrate the effect of 3-pentanol on ISR against naturally occurring plant diseases under field conditions. FIG. 5A illustrates the effect of 3-pentanol on cucumber mosaic virus (CMV) disease three months after the treatment, FIG. 5B illustrates the symptoms of the viral disease (the photographic image was taken three months after the naturally occurring plant disease), and FIG. 5C illustrates the effect of 3-pentanol on bacterial leaf spot disease three months after treatment. The positive control group plant was treated with 0.5 mM BTH. The disease occurrence rate (i.e., 0 to 5) as an indicator of ISR was measured three months after transplantation (i.e., 0: no symptoms; 5: severe symptoms of necrosis).
(§2) 3-Pentanol, having shown ISR properties, was used for subsequent direct applications. Pepper seeds were purchased from Heungnong Jongmyo (breed; Bugang). The surface of the seeds were sterilized for 5 minutes using 1% sodium hypochlorite and rinsed with sterilized water for 5 min. The surface sterilized seeds were allowed to germinate on MS medium containing an appropriate amount of moisture. […] The disease occurrence rate was determined based on comparison and observation at 10 day intervals until Day 40. The severity of symptoms was scored as in Yang et al. 2009, Plant Pathol. […]

aphids = test: Aphid infestation of cucumber, naturally occurring aphids; conditions: 1 mM soil drench, 34 dps
Excerpt: FIGS. 8A and 8B illustrate that 3-pentanol confers induced resistance against aphids in cucumber: (a), Nymph number; (b), Adult number. Bars represent the mean±SE (sample size, n=12 replications per treatment).
Cucumber plants (Cucumis sativus L. cv. backdadagi) were cultivated in an open field under natural conditions. For greenhouse experiments, seeds were directly planted in pots containing soilless medium (Punong Co. Ltd., Gyeongju, Korea) in a 24 hole plug tray under greenhouse condition. The germinated seedlings were transplanted into large pots (diameter=30 cm; height=30 cm). Chemical treatments to elicit induced resistance in cucumber were carried out. Briefly, the 14 day old cucumber seedlings were treated by direct drench application of 50 mL solution of 1 mM 3-pentanol. 3-pentanol bought from Sigma-Aldrich Co. was dissolved in distilled water before application. Treatments with 1 mM benzothiadiazole (BTH) and water were used as positive and negative controls, respectively.
For pathogen challenge, a culture of the compatible bacterial pathogen Pseudomonas syringae pv. lachrymans (OD600=1 in 10 mM MgCl2) was spray-challenged on cucumber leaves until run-off at 7 days after the drench application of chemicals to roots at 21 days after seeding. The severity of symptoms was scored from 0 to 5 as follows: 0, no symptoms; 1, less than 20% diseased area; 2, 21%-40% diseased area; 3, 41%-60% diseased area; 4, 61%-80% diseased area; and 5, more than 81% diseased area of the entire leaf Bacterial pathogens were cultured overnight at 28° C. in King's B medium supplemented with the appropriate antibiotics (100 μg/mL). As a positive control, roots were treated with 1 mM BTH. […] To investigate whether the 3-pentanol elicited plant immunity to aphid feeding, numbers of naturally occurring aphids (in 2011, Daejeon, Korea) were counted. Application of 1 mM BTH was used as a positive control. The total numbers of nymph and adult aphids were counted at 34 days after seeding. The experiments were repeated with similar results.

cucumber mosaic virus = test: ISR against naturally occurring cucumber mosaic virus disease under field conditions; conditions: pepper, three months after final transplantation, versus control group
Excerpt: as §1, §2

[2] = system: Xanthomonas axonopodis pv. vesicatoria; test: ISR screening under greenhouse conditions, bacterial spot disease in pepper; conditions: irrigation, 1 mM, second screening
Procedure: FIGS. 1A and 1B illustrate the effect of the eighteen different volatile organic compounds from Bacillus amyloliquefaciens IN937a strain on plant ISR against Xanthomonas axonopodis pv. vesicatoria under greenhouse conditions. […] The positive control plant was treated with 0.5 mM benzothiadiazole (BTH). The disease occurrence rate (i.e., 0 to 5) as an indicator of ISR was measured on Day 7 following inoculation of pathogen (i.e., 0: no symptoms; 5: severe symptoms of necrosis).
In order to determine the ISR properties of the previously selected, eighteen different volatile organic compounds from the Bacillus amyloliquefaciens IN937a strain, young pepper was grown for 3 to 4 weeks after seeding and irrigated, with the compounds present, in concentrations of 10 μM or 100 nM in 50 ml volumes. One week following irrigation treatment, the plant was exposed to Xanthomonas axonopodis pv. vesicatoria at a concentration of 10^7 CFU/ml. Symptoms of disease were observed five to seven days later, and the level of disease was measured based on a scale from 0 to 5, as described above. In a second screening, four volatile substances, selected from the first screening, were incorporated into the irrigation treatment at concentrations of 1 mM, 10 μM, 0.1 μM, and 1 nM. After exposure to pathogen, symptoms of disease were observed.

[3] = system: Pseudomonas syringae pv. lachrymans; test: Angular leaf spot disease severity in cucumber; conditions: 1 mM drench, 28 days post seeding, 7 days after spray-challenge
Procedure: FIG. 7 illustrates induction of systemic resistance by 1 mM 3-pentanol against Pseudomonas syringae pv. lachrymans. The severity of symptoms was scored from 0 to 5 as follows: 0, no symptoms; 1, yellowish color; 2, chlorosis only; 3, partial necrosis and chlorosis; 4, necrosis of the inoculated area and expanded chlorosis; and 5, complete necrosis of the inoculated area. Disease severity of cucumber treated with 3-pentanol was assessed 7 days after infection with P. syringae pv. lachrymans. Water and 1 mM BTH were used as negative and positive controls, respectively. […] Error bars indicate the standard error (n=16). […]
For pathogen challenge, a culture of the compatible bacterial pathogen Pseudomonas syringae pv. lachrymans (OD600=1 in 10 mM MgCl2) was spray-challenged on cucumber leaves until run-off at 7 days after the drench application of chemicals to roots at 21 days after seeding. The severity of symptoms was scored from 0 to 5 as follows: 0, no symptoms; 1, less than 20% diseased area; 2, 21%-40% diseased area; 3, 41%-60% diseased area; 4, 61%-80% diseased area; and 5, more than 81% diseased area of the entire leaf Bacterial pathogens were cultured overnight at 28° C. in King's B medium supplemented with the appropriate antibiotics (100 μg/mL). […] The total numbers of nymph and adult aphids were counted at 34 days after seeding. […]

[4] = system: Xanthomonas axonopodis pv. vesicatoria; test: ISR under field conditions, bacterial spot disease in pepper; conditions: for disease level (ISR against bacterial spot disease): 1 mM 3-pentanol; for resistance to the disease (bacterial spot): additional 3-pentanol treatment
Procedure: FIGS. 2A and 2B illustrate the effect of 3-pentanol on plant ISR against Xanthomonas axonopodis pv. vesicatoria under field conditions at different time points. The ISR effect of 3-pentanol was measured on Day 10, Day 20, Day 30, and Day 40 after seedling transplantation. The positive control plant was treated with 0.5 mM BTH. The disease occurrence rate (i.e., 0 to 5) as an indicator of ISR was measured on Day 10 following inoculation of pathogen.
3-Pentanol, having shown ISR properties, was used for subsequent direct applications. Pepper seeds were purchased from Heungnong Jongmyo (breed; Bugang). The surface of the seeds were sterilized for 5 minutes using 1% sodium hypochlorite and rinsed with sterilized water for 5 min. The surface sterilized seeds were allowed to germinate on MS medium containing an appropriate amount of moisture. Germinated seeds, without m having any contamination, were planted in a 50-hole pot (28×54×6 cm) filled with soil for horticultural use (Punong Co., Ltd, Korea) and cultivated for six weeks in a greenhouse at 20 to 30° C. Six weeks after seeding and upon growth of seven to eight main leaves, 1 mM 3-pentanol was diluted to a volume of about 3 liters with sterilized water and poured into the 50-hole pot dish. In order to have effective soaking of the immersion solution in the soil and roots of the plant, immersion was carried out over about 24 hours. After 24-hour immersion, the young pepper plants were transplanted into a field (i.e., Chungyong-Li, Gaduk-Myon, Chungwon-Gun, Chungchongbuk-Do, South Korea 36°32′27.26″ North and 127°33′07.81″ East). The burrow to burrow distance was 1.2 m and the field was about 12.5 m to ensure the treatment areas were evenly mixed with each other. Twenty days after the final transplantation into the field, a secondary application of 1 mM 3-pentanol diluted to a volume of about 3 liters with sterilized water, was applied as 100 mL irrigation treatments for each. The test method used was as follows: after final transplantation, using a syringe, Xanthomonas axonopodis pv. vesicatoria at the concentration of 10^7 CFU/ml was exposed to the backside of the pepper leaf at intervals of 10 days until Day 40. Responses were then examined seven to ten days after exposure. The bacterial inoculant has been cultured for 48 hours at 30° C. after adding antibiotics of Rifampicin (100 μg/ml) to a solid medium. The control group received zero treatment and the treatment group received four applications. The disease occurrence rate was determined based on comparison and observation at 10 day intervals until Day 40. The severity of symptoms was scored as in Yang et al. 2009, Plant Pathol. […]

PR1 and PR4 genes = test: Expression analysis of resistance genes by qRT-PCR; conditions: pepper leaf, six hours after inoculation of pathogen
Procedure: FIGS. 3A through 3D illustrate expression of the defense-related genes PR1 and PR4 induced by 3-pentanol following inoculation of pathogen to pepper. Expression of the defense signal transduction related genes PR1 and PR4 at 10 dpt (FIG. 3A), 20 dpt (FIG. 3B), 30 dpt (FIG. 3C), and 40 dpt (FIG. 3D) was determined by quantitative RT-PCR. Relative RNA levels were calibrated and normalized to the level of CaActin mRNA. The samples were collected 6 hours post inoculation of pathogen. The positive control group plant was treated with BTH.
Expression of PR1 and PR4 genes related to the disease resistance of pepper were examined based on quantitative real time-polymerase chain reaction (qRT-PCR). The sequences of the primers used are as follows.
Following bacterial exposure to the backside of a pepper leaf, the pepper leaf was cut using scissors at 0 hours and at 6 hours and stored in liquid nitrogen. RNA isolation began with the pepper leaf being ground in liquid nitrogen using a mortar and pestle, The RNA was then extracted from the pepper leaf by using TRIzol Reagent (Invitrogen Life Technologies). […]

Row | Compound | resistance to bacterial leaf spot disease [1] | number of adult aphids (aphids) [per leaf] | number of aphid nymphs (aphids) [per leaf] | resistance to cucumber mosaic virus (cucumber mosaic virus) | resistance to bacterial spot disease in pepper, outcome of screening [2] | less symptom severity compared to water control [3] [%] | disease level (ISR against bacterial spot disease) ([4]; ten days after final transplantation) | disease level (ISR against bacterial spot disease) ([4]; twenty days after final transplantation) | resistance to the disease (bacterial spot) ([4]; forty days after final transplantation) | resistance to the disease (bacterial spot) ([4]; thirty days after final transplantation) | expression level of PR gene (PR1 and PR4 genes; Day 10 after final transplantation) | expression of PR gene (PR1 and PR4 genes; from Day 20 after transplantation)
1 | CCC(O)CC [3-pentanol] | not different among three treatment groups | 1.0 | 21 | significantly increased | finally selected | 24 | no difference compared to the control group | less than the control group | higher resistance to the disease compared to the control group | higher resistance to the disease compared to the control group | lower expression level of PR gene compared to the control group | the same or higher than that of the control group
2 | c1ccc2snnc2c1 [BTH, benzothiadiazole, reference compound] | not different among three treatment groups | 0.4 | 20 | almost the same |  |  |  |  |  |  |  | 
